How the values were obtained:
I-less form of Mac-1 = test: Adhesion of HEK293 cells expressing the I-less form of Mac-1; format: cell-based, Human; conditions: peptide immobilized at 10 μM, 30 min at 37 °C
Method: Fig. 3 Adhesion of Mac-1-expressing cells to Dyn A and Dyn B. a, Mac-1-expressing and wild-type HEK293 cells were labeled with calcein and 5x10^4 cells were added to the wells coated with different concentrations of the Dyn A. After 30 min at 37 °C, nonadherent cells were removed and fluorescence was measured. The data shown are means of triplicate determinations, and error bars represent S.E. The figure is representative of 8 experiments. b , adhesion of HEK293 cells expressing Mac-1, LFA and the I-less form of Mac-1 to Dyn A and Dyn B immobilized at 10 μM was determined as described in A. c, calcein-labeled Mac-1-HEK293 cells were preincubated without or with 10 μg/ml of anti-αM mAb 44a or 1 μg/ml NIF for 15 minutes. For testing the role of glucosaminoglycans in cell adhesion, dynorphin A-coated wells were preincubated with 100 μl of 10 μg/ml of chondroitin sulfate A, chondroitin sulfate B and heparin. […]
Adhesion assays were performed essentially as described previously. […] Fluorescence was measured in a CytoFluorII fluorescence plate reader (Perceptive Biosystems, Framingham, MA). […] After aspirating the solution, labeled cells were added and cell adhesion was analyzed as above.

wild-type HEK293 cells = test: Translocation of Dyn A into wild-type HEK293 cells (immunolabeling); format: cell-based, Human; conditions: 20 μM Dyn A, 40 min at 37 °C
Method: Fig. 5 Translocation of Dyn A into cells. Mac-1-expressing (a) and wild-type HEK293 (b) cells were incubated with 20 μM and 100 μM of Dyn A for 40 min at 37 °C, fixed, permeabilized and incubated with anti-dynorphin antibodies followed by Alexa Fluor 488-conjugated secondary goat anti-rabbit antibodies. No labeling was detected in the absence of primary antibody. c, Enlarged images of Dyn A-accumulated Mac-1- and wild-type HEK cells shown in a and b. d, Quantification of fluorescent cells shown in a and b
Mac-1-HEK 293 and wild-type HEK 293 cells were incubated for 10 min with different concentrations (0–100 μM) of Dyn A and allowed to adhere to glass coverslips coated with poly-Lysine for 30 min. Adherent cells were fixed in 2 % paraformaldehyde solution, permeabilized with 0.1 % Tween-20, and blocked with 10 % normal goat serum plus 1 % BSA. The coverslips were incubated with 5 μg/ml polyclonal anti-Dyn A antibody followed by an secondary goat anti-rabbit antibody conjugated to Alexa Fluor 488 (1:1000). Images were taken using a Leica DM 4000B microscope (Leica, Buffalo Grove, IL).

[1] = biological target: T1, Mac-1 (Mac-1-expressing HEK293 cells) (Homo sapiens, UniProt P05107+P11215); test: Adhesion of Mac-1-HEK293 cells to immobilized peptide; format: cell-based; conditions: 30 min at 37 °C
T1 construct: expressed in transfected cells
Method: For testing the role of glucosaminoglycans in cell adhesion, dynorphin A-coated wells were preincubated with 100 μl of 10 μg/ml of chondroitin sulfate A, chondroitin sulfate B and heparin. Aliquots (5x10^4cells) were added to the wells coated with 2 μM dynorphin A and adhesion was performed as described in A. Adhesion in the absence of Mac-1 inhibitors and glucosaminoglycans was assigned a value of 100 %. The data shown are the means ± S.E. from four separate experiments each with triplicate measurements. d , microtiter plate wells were coated with different concentrations of dynorphin B and adhesion of Mac-1-expressing and wild-type HEK293 cells was determined as described in A. The data shown are means of triplicate determinations, and error bars represent S.E. The figure is representative of 5 experiments. e. calcein-labeled Mac-1-HEK293 cells were preincubated without or with 10 μg/ml of mAb 44a and heparin, added to the wells coated with 20 μM of dynorphin B and adhesion was performed as described in A. Adhesion in the absence of inhibitors was assigned a value of 100 %.
Adhesion assays were performed essentially as described previously. […] Cells were labeled with 10 μM calcein for 30 min at 37 °C and washed twice with Hanks’ Balanced salt solution (HBSS) containing 0.1 % BSA. Aliquots (100 μl) of labeled cells (5x10^5/ml) were added to each well and allowed to adhere for 30 min at 37 °C. The non-adherent cells were removed by two washes with PBS. Fluorescence was measured in a CytoFluorII fluorescence plate reader (Perceptive Biosystems, Framingham, MA). In inhibition experiments, cells were mixed with different concentrations of peptides, NIF or mAbs for 20 min at 22 °C before they were added to the wells coated with adhesive substrates. In a separate set of experiments, after coating plates with dynorphins and post-coating with 1 % PVP, plates were incubated with 100 μl of 10 μg/ml chondroitin sulfate A, chondroitin sulfate B, or heparin for 20 min at 22 °C. After aspirating the solution, labeled cells were added and cell adhesion was analyzed as above.

SMILES: CC[C@H](C)[C@H](NC(=O)[C@H](CCCNC(=N)N)NC(=O)[C@H](CCCNC(=N)N)NC(=O)[C@H](CC(C)C)NC(=O)[C@H](Cc1ccccc1)NC(=O)CNC(=O)CNC(=O)[C@@H](N)Cc1ccc(O)cc1)C(=O)N[C@@H](CCCNC(=N)N)C(=O)N1CCC[C@H]1C(=O)N[C@@H](CCCCN)C(=O)N[C@@H](CC(C)C)C(=O)N[C@@H](CCCCN)C(=O)N[C@@H](Cc1c[nH]c2ccccc12)C(=O)N[C@@H](CC(=O)O)C(=O)N[C@@H](CC(N)=O)C(=O)N[C@@H](CCC(N)=O)C(=O)O [Dyn A]
- Adhesion of HEK293 cells expressing the I-less form of Mac-1 (I-less form of Mac-1): 7 ± 1%
- Localization of Dyn A in wild-type HEK293 cells (wild-type HEK293 cells): entering inside wild-type HEK293 cells
- Coating concentration giving saturable adhesion ([1]; Mac-1-HEK293 cells): ~ 2 μM
- Adhesion of Mac-1-HEK293 cells (in words) ([1]; coated wells, calcein-labeled cells): strongly adhered
- EC50 ([1]; read-out: Coating concentration required to reach 50 % of maximal cell adhesion, Mac-1-HEK293 cells, fluorescence of calcein): 200 to 500 nM

Reference: article PMC4481117 (Molecular Pain, 2015)
